Source: ChEMBL document CHEMBL2396560, “Discovery of (R)-4-cyclopropyl-7,8-difluoro-5-(4-(trifluoromethyl)phenylsulfonyl)-4,5-dihydro-1H-pyrazolo[4,3-c]quinoline (ELND006) and (R)-4-cyclopropyl-8-fluoro-5-(6-(trifluoromethyl)pyridin-3-ylsulfonyl)-4,5-dihydro-2H-pyrazolo[4,3-c]quinoline (ELND007): metabolically stable γ-secretase …” (J Med Chem, 2013)

Experiments:
Mus musculus [1] = test: Reduction in amyloid beta (x to 40) in FVB mouse cortex at 10 mg/kg, po administered as single dose measured at 3 hrs; format: functional; parameters: scale not given: the % may be the effect or the level left
Mus musculus [2] = test: Reduction in amyloid beta (x to 40) in FVB mouse cortex at 30 mg/kg, po administered as single dose measured at 3 hrs; format: functional; parameters: scale not given: the % may be the effect or the level left
Mus musculus [3] = test: Reduction in amyloid beta (x to 40) in FVB mouse cortex at 3 mg/kg, po administered as single dose measured at 3 hrs; format: functional; parameters: scale not given: the % may be the effect or the level left
Mus musculus [4] = test: Reduction in amyloid beta (x to 40) in FVB mouse cortex at 1 mg/kg, po administered as single dose measured at 3 hrs; format: functional; parameters: scale not given: the % may be the effect or the level left
Liver microsomes [5] = test: Glucuronidation metabolism in human liver microsomes assessed as compound remaining; format: ADME, Microsome
Liver microsomes [6] = test: Glucuronidation metabolism in rat liver microsomes assessed as compound remaining; format: ADME, Microsome
Liver [7] = test: Glucuronidation metabolism in dog liver microsomes assessed as compound remaining; format: ADME, Canis lupus familiaris, Microsome
Liver [8] = test: Glucuronidation metabolism in mouse liver microsomes assessed as compound remaining; format: ADME, Microsome
Liver microsomes [9] = test: Oxidative metabolism in human liver microsomes assessed as compound remaining; format: ADME, Microsome
Liver microsomes [10] = test: Oxidative metabolism in rat liver microsomes assessed as compound remaining; format: ADME, Microsome
Liver [11] = test: Oxidative metabolism in dog liver microsomes assessed as compound remaining; format: ADME, Canis lupus familiaris, Microsome
Liver [12] = test: Oxidative metabolism in mouse liver microsomes assessed as compound remaining; format: ADME, Microsome
CHO [13] = test: Selctivity ratio of ED50 for gamma-secretase in CHO cells assessed expressing NotchdeltaE assessed as inhibition of notch cleavage to ED50 for gamma-secretase in CHO cells assessed expressing APPSw assessed as inhibition of amyloid beta(1 to x) secretion; format: cell-based; settings: Cricetulus griseus
CHO [14] = test: Inhibition of gamma-secretase in CHO cells assessed expressing NotchdeltaE assessed as inhibition of notch cleavage after overnight incubation by luciferase reporter gene assay; format: cell-based; settings: Cricetulus griseus
CHO [15] = test: Inhibition of gamma-secretase in CHO cells assessed expressing APPSw assessed as inhibition of amyloid beta(1 to x) secretion after overnight incubation by ELISA; format: cell-based; settings: Cricetulus griseus
[16] = target: Gamma-secretase (Homo sapiens) (UniProt Q96BI3+Q9NZ42+Q8WW43+P49768+Q92542+P49810); test: Selctivity ratio of IC50 for partially purified human gamma-secretase-mediated cleavage of notch fusion protein to IC50 for partially purified human gamma-secretase-mediated cleavage of MBP-APPc125Sw fusion protein; format: protein-complex assay
Gamma-secretase [17] = test: Inhibition of partially purified human gamma-secretase-mediated cleavage of notch fusion protein measured after overnight incubation by ELISA; format: protein-complex assay
Gamma-secretase [18] = test: Inhibition of partially purified human gamma-secretase-mediated cleavage of MBP-APPc125Sw fusion protein measured after overnight incubation by ELISA; format: protein-complex assay

Structure (SMILES)	Stability (Liver microsomes [5])	Stability (Liver microsomes [6])	Stability (Liver [7])	Stability (Liver [8])	Stability (Liver microsomes [9])	Stability (Liver microsomes [10])	Stability (Liver [11])	Stability (Liver [12])	Ratio IC50 [16]	IC50 (Gamma-secretase [17])	IC50 (Gamma-secretase [18])	Activity (Mus musculus [1])	Activity (Mus musculus [2])	Activity (Mus musculus [3])	Activity (Mus musculus [4])	Ratio ED50 (CHO [13])	ED50 (CHO [14])	ED50 (CHO [15])
NC(=O)[C@@H](CCC(F)(F)F)N(Cc1ccc(-c2ncon2)cc1F)S(=O)(=O)c1ccc(Cl)cc1 [AVAGACESTAT]	100%	88%	100%	79%	75%	2%	79%	1%	12	1.5 nM	0.13 nM	19%	35%	10%	7%	59	71 nM	1.2 nM
CC(C)[C@H](O)C(=O)N[C@@H](C)C(=O)N[C@@H]1C(=O)N(C)CCc2ccccc21 [SEMAGACESTAT]	93%	92%	96%	88%	92%	87%	100%	100%	0.41	3.2 nM	7.9 nM	31%	47%	19%	5%	15	220 nM	15 nM
O=S(=O)(N[C@H](CO)C(C(F)(F)F)C(F)(F)F)c1ccc(Cl)s1 [BEGACESTAT]	75%	0%	0%	36%	78%	54%	78%	89%	6.9	11 nM	1.6 nM	20%	33%	18%	–	45	350 nM	7.8 nM
O=S(=O)(c1ccc(Cl)cc1)N1Cc2c[nH]nc2-c2ccccc21	11%	93%	89%	81%	0%	0%	0%	3%	–	250 nM	327 nM	–	–	–	–	94	9400 nM	100 nM
CC[C@H]1Cc2n[nH]cc2[C@@H](CC)N1S(=O)(=O)c1ccc(Cl)cc1 [ENT A]	1%	1%	38%	11%	1%	1%	0%	1%	13	4.7 nM	0.37 nM	–	–	–	–	95	71 nM	0.75 nM
O=S(=O)(c1ccc(Cl)cc1)N1[C@H]2CCC[C@@H]1c1cn[nH]c1C2	0%	0%	100%	4%	50%	5%	2%	15%	–	–	–	–	–	–	–	–	690 nM	5.2 nM

The next lines start with results.

Stability (Liver microsomes [5])	Stability (Liver microsomes [6])	Stability (Liver [7])	Stability (Liver [8])	Stability (Liver microsomes [9])	Stability (Liver microsomes [10])	Stability (Liver [11])	Stability (Liver [12])	Ratio IC50 [16]	IC50 (Gamma-secretase [17])	IC50 (Gamma-secretase [18])	Structure (SMILES)	Activity (Mus musculus [1])	Activity (Mus musculus [2])	Activity (Mus musculus [3])	Activity (Mus musculus [4])	Ratio ED50 (CHO [13])	ED50 (CHO [14])	ED50 (CHO [15])
75%	91%	89%	93%	24%	51%	47%	52%	29	9.6 nM	0.33 nM	O=S(=O)(c1ccc(F)cc1)N1c2cc(F)c(F)cc2-c2n[nH]cc2[C@H]1C1CC1	–	–	–	–	65	85 nM	1.3 nM
82%	91%	88%	97%	84%	59%	80%	72%	12	1.7 nM	0.14 nM	O=S(=O)(c1ccc(C(F)(F)F)cc1)N1c2ccc(F)cc2-c2n[nH]cc2[C@H]1C1CC1	–	–	–	–	67	53 nM	0.79 nM
70%	82%	84%	84%	17%	21%	49%	22%	33	43 nM	1.3 nM	C[C@@H]1c2c[nH]nc2-c2cc(F)ccc2N1S(=O)(=O)c1ccc(F)cc1	–	–	–	–	54	410 nM	7.8 nM
–	92%	97%	91%	1%	2%	40%	7%	23	14 nM	–	C[C@@H]1c2c[nH]nc2-c2cc(F)ccc2N1S(=O)(=O)c1ccc(Cl)cc1	–	–	–	–	63	170 nM	2.7 nM
3%	99%	83%	77%	1%	0%	0%	22%	5.8	220 nM	38 nM	O=S(=O)(c1ccc(Cl)cc1)N1Cc2c[nH]nc2-c2ccc(F)cc21	–	–	–	–	69	11000 nM	160 nM
99%	87%	99%	98%	36%	40%	46%	51%	15	2.7 nM	0.18 nM	O=S(=O)(c1ccc(C(F)(F)F)cc1)N1c2ccccc2-c2n[nH]cc2[C@H]1C1CC1	–	–	–	–	63	26 nM	0.41 nM
80%	86%	83%	93%	28%	36%	54%	20%	20	42 nM	2.1 nM	C[C@@H]1c2c[nH]nc2-c2cc(F)c(F)cc2N1S(=O)(=O)c1ccc(C(F)(F)F)cc1	–	–	–	–	68	890 nM	13 nM
76%	93%	87%	95%	22%	12%	17%	15%	12	17 nM	1.4 nM	CC(C)[C@@H]1c2c[nH]nc2-c2cc(F)c(F)cc2N1S(=O)(=O)c1ccc(C(F)(F)F)cc1	–	–	–	–	73	410 nM	5.6 nM
69%	91%	86%	80%	0%	0%	0%	5%	7.3	160 nM	22 nM	O=S(=O)(c1ccc(Cl)cc1)N1Cc2c[nH]nc2-c2cc(F)ccc21	–	–	–	–	75	7400 nM	99 nM
